The values below come from patent US4490393A, “Thiazolylurea derivatives, a process for preparing same and a pharmaceutical composition containing same” (Mitsui Toatsu Kagaki Kabushiki Kaisha, priority 1981, dated 1984).

SMILES strings stand for the structures. Counter-ions that a name gives are not always drawn.

In one data set the test system is ddY male mice. Kind of data set: Acute Toxicity Test through Oral Administration (Test Example 3). The data set is classed as in vivo. The note with it: observed for 7 days. From the text: To each of a group of five ddY male mice, was orally administered a medicine dissolved or suspended in physiological saline.
Turning to `c1ccc([C@H]2CN3CCSC3=N2)cc1` [Levamisole.HCl, Levamisole hydrochloride, reference compound], the “estimated LD50” value is 200 to 300 mg/kg.

The next data set concerns delayed hypersensitivity induced by picryl chloride. Kind of data set: Reinforcement Test of Delayed Hypersensitivity (Test Example 1). Particulars: ICR mice, oral 50 mg per Kg simultaneously with sensitization; 24 hours after challenging; average of both pinnae of eight mice; * P<0.05, ** P<0.01 vs control. The data set is classed as in vivo, ICR male mice. From the text:
The delayed hypersensitivity induced on a mouse when picryl chloride(2-chloro-1,3,5-trinitrobenzene) is coated on the skin of the mouse is known as a typical cellular immunity.
This test system was used for the reinforcement tests of the delayed hypersensitivity.
Groups of eight ICR male mice, each having a body weight of about 30 g or so, were used for the test.
Sensitization was effected by coating a 3% solution of picryl chloride in a 4/1 mixture of olive oil and acetone on the shaved abdomen of each of the mice.
Simultaneously with the sensitization, a solution or suspension of a compound of the present invention dissolved or suspended in a 0.2% solution of carboxymethylcellulose in a physiological saline was orally administered to the mouse at a dose of 50 mg per Kg of its body weight. To each mouse of a control group, was similarly administered a 0.2% carboxymethylcellulose solution in a physiological saline.
The delayed hypersensitivity was induced 7 days after the sensitization by pinching each of the pinnae of each mouse with a pair of forceps whose tip portions were wrapped with a felt impregnated with a 1% solution of picryl chloride in olive oil and coating the pinnae with the solution. The thickness of each pinna was measured before the challenging and 24 hours after the challenging and the ratio of increase of the thickness (average value of both of the pinnae of the eight mice) is shown in Table 1.
For comparison, a similar test was carried out using Levamisole hydrochloride. The results thereof are also shown.
F.t tests were carried out on the thus-obtained test results.
On to `c1ccc([C@H]2CN3CCSC3=N2)cc1` [Levamisole.HCl, Levamisole hydrochloride, reference compound], for which the “Ratio of Increase of Pinna Thickness” value worked out at 31.2%.

`O=C(Nc1nc(-c2ccccc2)cs1)Nc1nc(-c2ccccc2)cs1` [drawing 8]: the “Ratio of Increase of Pinna Thickness” value turned out to be 37.5%.

As for `Cc1ccc(-c2csc(NC(=O)Nc3nc(-c4ccc(C)cc4)cs3)n2)cc1` [drawing 9], the “Ratio of Increase of Pinna Thickness” value was 36.1%.

As to `COc1ccc(-c2csc(NC(=O)Nc3nc(-c4ccc(OC)cc4)cs3)n2)cc1` [drawing 10], the “Ratio of Increase of Pinna Thickness” value stood at 31.7%.

On to `CSc1sc(NC(=O)Nc2nc(-c3ccccc3)c(SC)s2)nc1-c1ccccc1` [drawing 11], for which the “Ratio of Increase of Pinna Thickness” value amounted to 29.0%.

As to `Cc1cc(NC(=O)Nc2nc(-c3ccccc3)cs2)no1` [drawing 12], the “Ratio of Increase of Pinna Thickness” value was found to be 37.8%.

As for `O=C(Nc1ccccn1)Nc1nc(-c2ccccc2)cs1` [drawing 13], the “Ratio of Increase of Pinna Thickness” value is recorded as 25.4%.

The test system of the next data set is adjuvant arthritis caused by the injection of a Mycobacterium tuberculosis adjuvant. Description: Adjuvant Arthritis Test (Test Example 2). The data set is classed as in vivo, SD male rats. Particulars: SD rats, subcutaneous 5 mg per Kg, 9 times; average value from 16th to 20th days; left hind leg; * P<0.05, ** P<0.01 vs control. From the text: The adjuvant arthritis in rats caused by the injection of a Mycobacterium tuberculosis adjuvant is often utilized for a model test of chronic rheumatoid arthritis in human.
The mechanism of manifestation of this disease has not completely been elucidated, but it is known that cellular immunity plays an important role. The immuno-modulating activity of the compounds of the present invention was investigated in accordance with this known adjuvant arthritis test.
8-Week-old SD male rats were used for the test. In 0.1 ml of fluid paraffin, 0.4 mg of dry dead cells of Mycobacterium tuberculosis were suspended, and the suspension was injected under the heel skin of the right hind leg of each rat. Each of the compounds of the present invention was subcutaneously administered 9 times in total before and after the injection of the adjuvant. Each of the compounds of the present invention was dissolved or suspended in a 0.2% solution of carboxymethylcellulose in physiological saline and administered to each rat at a dose of 5 mg per Kg of the body weight. The swollen volume of the left hind leg was measured during the period of from the day of injection to the day of completion of the test, and the swelling ratio was calculated. For comparison, a similar test was conducted using Levamisole hydrochloride. F.t tests were carried out on the test results obtained.
As for `c1ccc([C@H]2CN3CCSC3=N2)cc1` [Levamisole.HCl, Levamisole hydrochloride, reference compound], the “Swell suppression ratio to control group” value is reported as 19.8%.

Take `O=C(Nc1nc(-c2ccccc2)cs1)Nc1nc(-c2ccccc2)cs1` [drawing 14]: the “Swell suppression ratio to control group” value is listed as 35.7%.

In the case of `Cc1ccc(-c2csc(NC(=O)Nc3nc(-c4ccc(C)cc4)cs3)n2)cc1` [drawing 15], the “Swell suppression ratio to control group” value is 29.3%.

Turning to `COc1ccc(-c2csc(NC(=O)Nc3nc(-c4ccc(OC)cc4)cs3)n2)cc1` [drawing 16], the “Swell suppression ratio to control group” value amounted to 37.5%.

For `CSc1sc(NC(=O)Nc2nc(-c3ccccc3)c(SC)s2)nc1-c1ccccc1` [drawing 17], the “Swell suppression ratio to control group” value turned out to be 28.8%.

`Cc1cc(NC(=O)Nc2nc(-c3ccccc3)cs2)no1` [drawing 18]: the “Swell suppression ratio to control group” value is 26.6%.

As for `O=C(Nc1ccccn1)Nc1nc(-c2ccccc2)cs1` [drawing 19], the “Swell suppression ratio to control group” value turned out to be 34.6%.
